Columns and labels:
[1] = Apparent solubility in pH 6.8 phosphate buffer (shaker, HPLC); assay type: physicochemical
Protocol: 3. Apparent solubility: excess amount of Olaparib pharmaceutical composition was weighed into a container, about ⅔ of the volume of the container with pH 6.8 phosphate buffer was added, and the container was placed in a shaker at 37° C. for 2 h. After filtering the contents of the container with a 0.45 μm filter membrane, the filtrate was collected, diluted with an appropriate amount of acetonitrile, mixed by vortex, and the concentration of Olaparib was determined by HPLC analysis.

[2] = Dissolution, USP Method 1 (Basket Method), pH 6.8 phosphate buffer; assay type: physicochemical; conditions: 900 mL, 100 rpm, 37.5° C., 150 mg Olaparib/cup
Protocol: 5. Dissolution sample analysis: the same as the HPLC analysis method described in the above-mentioned apparent solubility assay.
The main absorption site of drugs in the human body is the small intestine, and the pH value in the small intestine is about 6.8. According to the method described above, the dissolution of each Olaparib-cyclodextrin pharmaceutical composition in pH 6.8 phosphate buffer was determined, and the results were shown in Table 1-4.

Compound: O=C(c1cc(Cc2n[nH]c(=O)c3ccccc23)ccc1F)N1CCN(C(=O)C2CC2)CC1 [API, 4-[(3-{[4(cyclopropylcarbonyl)piperazin-1-yl]carbonyl}-4-fluorophenyl)methyl]phthalazin-1(2H)-one]
- solubility at 2 h ([1]; aqueous buffer, thermodynamic from solid, pH 6.8 phosphate buffer, 37° C., 2 h): < 100 µg/mL
- Solubility ratio (Composition/API) ([1]; pH 6.8 buffer, apparent solubility relative to API): 1
- Cumulative dissolution in pH 6.8 phosphate buffer ([2]; 15 min): 12.2%
- Cumulative dissolution in pH 6.8 phosphate buffer ([2]; 30 min): 21.4%
- Cumulative dissolution in pH 6.8 phosphate buffer ([2]; 45 min): 30.2%
- Cumulative dissolution in pH 6.8 phosphate buffer ([2]; 60 min): 37.5%
- Cumulative dissolution in pH 6.8 phosphate buffer ([2]; 90 min): 39.8%

Reference: patent US20230025316A1, “OLAPARIB PHARMACEUTICAL COMPOSITION, FORMULATION THEREOF, PREPARATION METHOD THEREOF AND USE THEREOF” (Sinotherapeutics Inc., priority 2020, published 2023)
